In US20080039442A1, “Compounds With Kv4 Ion Channel Activity” (Devgen NV, priority 2004, published 2008) one finds melting point and remaining activity data, which are given here for 19 compounds.

In series [1] the target is T1, human Kv4.3/KChIP2.2 potassium channel (Homo sapiens, UniProt Q9UK17).
T1 construct: expressed in transfected cells
T1 sequence (Q9UK17 1-655): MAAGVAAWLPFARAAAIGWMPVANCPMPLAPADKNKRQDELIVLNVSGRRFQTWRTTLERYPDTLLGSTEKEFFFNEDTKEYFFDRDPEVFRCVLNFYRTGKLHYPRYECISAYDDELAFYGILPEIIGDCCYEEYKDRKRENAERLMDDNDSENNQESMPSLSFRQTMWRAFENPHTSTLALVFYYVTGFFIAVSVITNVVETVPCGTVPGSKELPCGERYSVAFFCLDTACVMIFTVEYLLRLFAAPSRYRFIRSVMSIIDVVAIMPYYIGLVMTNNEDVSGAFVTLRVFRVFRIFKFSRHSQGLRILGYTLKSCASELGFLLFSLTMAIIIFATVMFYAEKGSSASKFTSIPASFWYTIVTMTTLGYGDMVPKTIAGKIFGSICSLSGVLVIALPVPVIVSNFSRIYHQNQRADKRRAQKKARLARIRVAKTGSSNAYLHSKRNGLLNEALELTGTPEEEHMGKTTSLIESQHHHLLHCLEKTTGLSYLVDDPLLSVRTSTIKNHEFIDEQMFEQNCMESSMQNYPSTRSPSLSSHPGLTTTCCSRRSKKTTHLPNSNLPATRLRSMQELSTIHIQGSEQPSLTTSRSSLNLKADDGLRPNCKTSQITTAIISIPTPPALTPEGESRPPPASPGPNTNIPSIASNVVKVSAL
T1 sequence (Q9NS61 1-270 partner): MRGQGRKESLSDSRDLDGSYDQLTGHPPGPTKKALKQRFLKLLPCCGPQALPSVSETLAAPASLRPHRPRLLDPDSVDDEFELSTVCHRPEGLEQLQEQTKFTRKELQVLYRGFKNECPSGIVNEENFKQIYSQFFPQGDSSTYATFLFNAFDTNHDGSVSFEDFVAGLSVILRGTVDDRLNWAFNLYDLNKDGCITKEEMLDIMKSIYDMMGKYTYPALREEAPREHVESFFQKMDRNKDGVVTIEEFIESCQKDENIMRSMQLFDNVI
As to the kind of experiment: Whole cell patch clamp, CHO-K1 cells stably expressing Kv4.3/KChIP2.2. In kind it is cell-based. The following applies: CHO-K1, 1 μM. The procedure:
For this experiment, a recombinant CHO-K1 cell line stably expressing the human Kv4.3/KChIP2.2 potassium channel was used.
Protocol B: The cells were cultured in 94 mm culture dishes under the culturing conditions of 5% CO2 and 37° C. Subculturing was performed every 3-4 days, by removing the media and then rising the dish with 8 ml PBS (phosphate buffered saline). The PBS was removed and 1 ml Trypsin/EDTA was added to the cells. The cells were incubated about 2 min at 37° C. or 5 min at room temperature and then the dish was rapped to detach and singularize the cells. To inactivate the enzyme 9 ml of media was added and the solution was pipetted up and down to break up clumps of cells. Part of the suspension was then transferred to a new 94 mm dish and media was added to a final volume of 8 ml. If necessary the cells could be seeded onto 35 mm or 94 mm dishes (2 ml media per 35 mm dish and 8 ml media per 94 mm dish). The media was changed every 2-3 days. The media used was the solution for culturing the cells described above. For stable cells antibiotic G418, Hygromycin, Blasticidin, or Zeocin were not added.
The preparation of cells for electrophysiological experiments was performed as described in protocol C hereunder.
Protocol C: The transfected cells and stable cells were transferred from 35 mm cell culture dishes onto coverslips using cold PBS: The media was removed and 0.3 ml of PBS (4-10° C.) was added. The cells were incubated 5 min at room temperature. The dish was rapped to detach and singularize the cells and 1.7 ml media was added and the solution pipetted up and down to break up clumps of cells. Part of the cell suspension was then transferred to a 35 mm dish with coverslips and media. The transfected cells and stable cells could also be transferred from 35 mm cell culture dishes onto coverslips using trypsin: The media was removed and the dish rinsed with 3 ml PBS. The PBS was removed and 0.3 ml 1× Trypsin/EDTA was added and the cells incubated 5 min at room temperature. The dish was rapped to detach and singularize the cells and 1.7 ml media was added and the solution pipetted up and down to break up clumps of cells. Part of the cell suspension was then transferred to a 35 mm dish with coverslips and media.
10 mM stock solutions of the compounds were prepared in DMSO. Solutions of the compounds were prepared by dilution of stock solution in bath solution. If the required stock solution volume was theoretically below 1 μl, bath solutions with higher compound concentration were used for dilution. The maximal DMSO concentration during experiments was 0.1% (v/v).
For patch clamp experiments, the following solutions in demineralized water as vehicle were used (concentration in mM).
Bath (external) solution: 4 KCl, 135 NaCl, 2 CaCl2, 1 MgCl2, 10 D(+)-Glucose, 5 HEPES, pH 7.4 (NaOH).
Pipette (internal) solution: 130 KCl, 1 MgCl2, 10 EGTA, 5 Na2ATP, 5 HEPES, pH 7.4 (KOH).
Experiments were performed using a patch clamp set-up.
Measurements were performed at room temperature (20-25° C.). […] Each cell acted as its own control. The effect of compounds on Kv4.3/KChIP2.2 mediated currents was investigated at one concentration ([…]) with two replicates each (c=1, n=2).
The test protocols are illustrated in FIG. 1 and Table 4. […] Each test protocol consisted of 4 segments.
Subsequently, 14 test pulses (series 1; FIG. 1b and Table 4b) were applied at 0.1 Hz under constant superfusion with bath solution. The protocol was initiated by a voltage jump to −100 mV (400 ms) to achieve full inactivation. Then the Kv4.3/KChIP2.2 channels were transferred to the open state by depolarization to +40 mV for 300 milliseconds (activation). Only cells generating current amplitudes between 1 nA and 50 nA were used for the experimental procedure. No or negligible rundown was observed.
Then, 36 test pulses (series 2) were applied at 0.1 Hz under constant superfusion with the compound dissolved in bath solution. […]

Where [2] appears, read: read-out: Kv4.3 charge in %: remaining current measured after application of the compound and relative to the blank.
Setting [3] is: read-out: Kv4.3 peak in %: remaining peak height measured after application of the compound and relative to the blank.

The structures appear in SMILES notation. Like-named read-outs stand apart in the source and are kept apart here.

As to `O=C(c1cc2cc(Cl)ccc2o1)N1CCc2ccccc2C1` [Compound 27, (5-chloro-benzofuran-2-yl)-(3,4-dihydro-1H-isoquinolin-2-yl)-methanone], the melting point was in the range of 127.7 to 129.1 °C. In addition, the remaining activity at 1 µM in series [1] (setting [2]) was 59%. Further, the remaining activity at 1 µM in series [1] (setting [3]) turned out to be 86%.

The compound `COc1ccc(CNC(=O)c2cc3cc(Cl)ccc3o2)c(O)c1` [Compound 108, 5-chloro-benzofuran-2-carboxylic acid 2-hydroxy-4-methoxy-benzylamide] registered a melting point of 173.8 to 176.2 °C. In addition, the remaining activity at 1 µM in series [1] (setting [2]) was determined as 85%. In addition, the remaining activity at 1 µM in series [1] (setting [3]) turned out to be 99%.

With `Cc1cccc(Cl)c1CNC(=O)c1cc2cc(Cl)ccc2o1` [Compound 62, 5-chloro-benzofuran-2-carboxylic acid 2-chloro-6-methyl-benzylamide], the melting point was in the range of 168.3 to 168.7 °C. In series [1] (setting [2]), the remaining activity at 1 µM was 39%. Further, the remaining activity at 1 µM in series [1] (setting [3]) is 86%.

For the compound `O=C(NCc1ccc(-c2cccs2)cc1)c1cc2cc(Cl)ccc2o1` [Compound 34, 5-chloro-benzofuran-2-carboxylic acid 4-thiophen-2-yl-benzylamide], the melting point fell in the range of 173.5 to 175 °C. Besides, the remaining activity at 1 µM in series [1] (setting [2]) is 90%. In addition, the remaining activity at 1 µM in series [1] (setting [3]) stood at 98%.

`O=C(NCc1cccs1)c1cc2cc(Cl)ccc2o1` [Compound 39, 5-chloro-benzofuran-2-carboxylic acid 4-(thiophen-2-ylmethyl)-amide] gave a melting point of 148.4 to 149.9 °C. Also, the remaining activity at 1 µM in series [1] (setting [2]) was 90%. Further, the remaining activity at 1 µM in series [1] (setting [3]) came to 91%.

Regarding `O=C(NC1Cc2ccccc2C1)c1cc2cc(Cl)ccc2o1` [Compound 25, 5-chloro-benzofuran-2-carboxylic acid indan-2-ylamide], the melting point was 190.2 to 190.5 °C. For the same compound, the remaining activity at 1 µM in series [1] (setting [2]) was determined as 82%. Besides, the remaining activity at 1 µM in series [1] (setting [3]) came out at 100%.

Take `COc1ccc(CC(=O)Nc2cc3ccccc3o2)c(OC)c1` [Compound 22, N-benzofuran-2-yl-2-(2,4-dimethoxy-phenyl)-acetamide]: the melting point fell in the range of 126.4 to 128.2 °C. Besides, the remaining activity at 1 µM in series [1] (setting [2]) is 90%. In addition, the remaining activity at 1 µM in series [1] (setting [3]) amounted to 100%.

Regarding `COc1ccc(NC(=O)c2cc3cc(Cl)ccc3o2)c(OC)c1` [Compound 24, 5-chloro-benzofuran-2-carboxylic acid (2,4-dimethoxy-phenyl)-amide], the melting point lay within 161.6 to 163.3 °C. Besides, in series [1] (setting [2]), the remaining activity at 1 µM was 85%. In series [1] (setting [3]), the remaining activity at 1 µM worked out at 102%.

As for `CC(C)(C)c1ccc(CNC(=O)c2cc3cc(Cl)ccc3o2)cc1` [Compound 71, 5-chloro-benzofuran-2-carboxylic acid 4-tert-butyl-benzylamide], the melting point was 129.5 to 131.1 °C. In series [1] (setting [2]), the remaining activity at 1 µM turned out to be 71%. Further, the remaining activity at 1 µM in series [1] (setting [3]) came out at 95%.

`COc1ccc(CNC(=O)c2cc3c(C(C)=O)ccc(OC)c3o2)c(OC)c1` [Compound 13, 4-acetyl-7-methoxy-benzofuran-2-carboxylic acid 2,4-dimethoxy-benzylamide]: the melting point is 148.2 to 150.3 °C. For the same compound, in series [1] (setting [2]), the remaining activity at 1 µM was found to be 86%. The remaining activity at 1 µM in series [1] (setting [3]) is 99%.

For `CN(C)CC(NC(=O)c1cc2cc(Cl)ccc2o1)c1ccccc1` (stereo not shown) [Compound 49, 5-chloro-benzofuran-2-carboxylic acid (2-dimethylamino-1-phenyl-ethyl)-amide], the melting point fell in the range of 60.2 to 60.4 °C. The remaining activity at 1 µM in series [1] (setting [2]) was 85%. For the same compound, the remaining activity at 1 µM in series [1] (setting [3]) worked out at 98%.

`Cc1ccc(CNC(=O)c2cc3cc(Cl)ccc3o2)cc1` [Compound 36, 5-chloro-benzofuran-2-carboxylic acid 4-methyl-benzylamide] had a melting point of 161.9 to 162.9 °C. Also, the remaining activity at 1 µM in series [1] (setting [2]) stood at 72%. Besides, the remaining activity at 1 µM in series [1] (setting [3]) is 89%.

For `CC(=O)Oc1ccc(CNC(=O)c2cc3cc(Cl)ccc3o2)cc1` [Compound 33, acetic acid 4-{[(5-chloro-benzofuran-2-carbonyl)-amino]-methyl}-phenyl ester], the melting point lay in the range of 162.5 to 164.5 °C. Also, the remaining activity at 1 µM in series [1] (setting [2]) is 89%. The remaining activity at 1 µM in series [1] (setting [3]) came to 100%.

On to `COc1ccc(CNC(=O)c2cnc3ccccc3c2)c(OC)c1` [Compound 42, quinolin-3-carboxylic acid 2,4-dimethoxy-benzylamide], for which the melting point worked out at 136.3 °C. For the same compound, the remaining activity at 1 µM in series [1] (setting [2]) is 89%. For the same compound, the remaining activity at 1 µM in series [1] (setting [3]) came out at 98%.

In the case of `O=C(Nc1ccc(Cn2cccn2)cc1)c1cc2cc(Cl)ccc2o1` [Compound 105, 5-chloro-benzofuran-2-carboxylic acid (4-pyrazol-1-ylmethyl-phenyl)-amide], the melting point fell in the range of 197.4 to 198.8 °C. Also, the remaining activity at 1 µM in series [1] (setting [2]) was 90%. The remaining activity at 1 µM in series [1] (setting [3]) turned out to be 99%.

Compound `N#Cc1ccc(CNC(=O)c2cc3cc(Cl)ccc3o2)cc1` [Compound 80, 5-chloro-benzofuran-2-carboxylic acid 4-cyano-benzylamide] showed a melting point of 226.6 to 230.4 °C.

In turn, `O=C(NCc1ccc(-c2cnns2)cc1)c1cc2cc(Cl)ccc2o1` [Compound 91, 5-chloro-benzofuran-2-carboxylic acid 4-[1,2,3]thiadiazol-5-yl-benzylamide] gave a melting point of 178.1 to 181.8 °C.

Take `O=C(NC1CCc2ccccc21)c1cc2cc(Cl)ccc2o1` (stereo not shown) [Compound 94, 5-chloro-benzofuran-2-carboxylic acid indan-1-ylamide]: the melting point is 161.4 to 164.1 °C.

On to `CSc1ccccc1CNC(=O)c1cc2cc(Cl)ccc2o1` [Compound 60, 5-chloro-benzofuran-2-carboxylic acid 2-methylsulfanyl-benzylamide], for which the melting point fell in the range of 174.7 to 177.2 °C.

A word on the melting point: it is the temperature of the solid-liquid transition.
